One test has as its system COX-2. Conditions: cited from earlier work.
Another test has as its system COX-1. Conditions: cited from earlier work; for selectivity index: COX-1 selectivity.
In the next test the test system is human recombinant COX-1. Put plainly: Cyclooxygenase inhibition assay (EIA kit), COX-1. Format: biochemical. Conditions: COX-1 over COX-2.
Another test concerns the target T1, human recombinant COX-2 (Homo sapiens, UniProt P35354).
T1 construct: purchased Cayman Chemical 560131
T1 sequence (P35354 18-604): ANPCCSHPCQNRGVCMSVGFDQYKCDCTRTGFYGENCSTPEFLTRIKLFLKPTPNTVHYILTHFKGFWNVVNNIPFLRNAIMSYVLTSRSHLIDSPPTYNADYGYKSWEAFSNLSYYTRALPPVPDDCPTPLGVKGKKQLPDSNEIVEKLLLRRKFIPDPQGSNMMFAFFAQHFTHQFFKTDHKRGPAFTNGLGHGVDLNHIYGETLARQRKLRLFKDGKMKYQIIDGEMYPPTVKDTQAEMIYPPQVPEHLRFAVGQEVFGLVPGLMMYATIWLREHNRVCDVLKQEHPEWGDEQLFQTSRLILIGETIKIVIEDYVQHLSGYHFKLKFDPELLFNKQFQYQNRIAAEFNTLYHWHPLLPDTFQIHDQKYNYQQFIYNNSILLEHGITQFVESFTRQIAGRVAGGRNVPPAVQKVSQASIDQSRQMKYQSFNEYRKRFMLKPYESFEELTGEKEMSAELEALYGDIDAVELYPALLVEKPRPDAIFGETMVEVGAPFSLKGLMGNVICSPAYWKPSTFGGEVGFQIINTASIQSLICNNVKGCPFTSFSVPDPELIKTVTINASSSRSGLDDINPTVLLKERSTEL
Description: Cyclooxygenase inhibition assay (EIA kit), COX-2. Format: biochemical. The following applies: human recombinant COX-2, EIA kit.

The test system of test [1] is platelet aggregation induced by collagen. Put plainly: Anti-platelet aggregation assay, collagen-induced. Format: cell-based. The following applies: for Collagen Inhibition Rate (%) ± SD / IC50: platelet aggregation induced by 0.33 U/mL collagen; for Collagen Inhibition Rate (%) ± SD: mean ± SD of three values; for IC50: 4 working concentrations. How it is done:
(§1) Furthermore, the target compounds 10–13 were capable of inhibiting the platelet aggregation induced by 10 μM ADP and 0.33 U/mL collagen.
(§2) The anti-platelet aggregation assays were performed according to the method reported by XIE et al. (Supplementary Materials).

Test [2] concerns platelet aggregation induced by ADP. Put plainly: Anti-platelet aggregation assay, ADP-induced. Conditions: for ADP Inhibition Rate (%) ± SD / IC50: platelet aggregation induced by 10 μM ADP; for ADP Inhibition Rate (%) ± SD: mean ± SD of three values; for IC50: 4 working concentrations. Format: cell-based. The method, then:
as §1, §2

Setting [3] is: previous examples of Figure 1, read-out: IC50 COX-1.

The structures appear in SMILES notation. Where two headings read alike, the source gives them in different places. A value given as a limit tells only on which side of the number the result lay.

By IC50 is commonly meant the concentration that inhibits the measured activity by half. Turning to `COc1ccc(-n2cc(-c3ccco3)c(C(F)(F)F)n2)cc1` [XI], the IC50 is more than 50 µM in the test on COX-2 (Figure 1) and 3.4 µM in the test with COX-1 (read-out: IC50 COX-1).

As for `NS(=O)(=O)c1ccc(-c2nc(Cl)cc(NCc3cccs3)n2)cc1` [VI], the SI with COX-2 (COX-2 selectivity, Figure 1) is > 81,300. In addition, the IC50 in the test on COX-2 (previous examples of Figure 1) is 0.0012 µM.

With `COc1ccc(-c2nc3ccccc3nc2-c2ccc(S(C)(=O)=O)cc2)cc1` [III], the IC50 in the test on COX-2 (previous examples of Figure 1) was 0.4 µM; in the test with COX-1 (setting [3]), more than 30 µM.

For `O=S(=O)(Nc1cnc2ccccc2n1)c1ccc(/N=C/c2ccccc2O)cc1` [Compound 13, (E)-4-(2-Hydroxybenzylideneamino)-N-(quinoxalin-2-yl)benzenesulfonamide], in the test with human recombinant COX-1, the “COX1 Selectivity Index” value is recorded as 2.87. For the same molecule, on human recombinant COX-2, the IC50 turned out to be 9.26 µM. Further, the “Collagen Inhibition Rate (%) ± SD” value in test [1] is listed as 45.36 ± 1.56%. For the same molecule, the “ADP Inhibition Rate (%) ± SD” value in test [2] came out at 46.32 ± 1.32%.

With `Nc1onc(-c2ccc(Cl)o2)c1-c1ccccc1` [X], the IC50 in the test on COX-2 (Figure 1) is more than 50 µM; with COX-1 (read-out: IC50 COX-1) it was 1.1 µM.

For the molecule `NS(=O)(=O)c1ccc(-c2nccnc2-c2ccc(F)cc2)cc1` [V], the 50% inhibitory concentration (IC50) was 1.07 µM in the test on COX-2 (previous examples of Figure 1) and more than 300 µM with COX-1 (setting [3]).

As to `Cc1cnc2c(-c3ccc(F)cc3)c(-c3ccc(S(C)(=O)=O)cc3)nn2c1C` [VIII], the IC50 in the test on COX-2 was 0.6 µM; in the test with COX-1 (read-out: IC50 COX-1), 13 µM.

Turning to `O=S(=O)(Nc1ncccn1)c1ccc(/N=C/c2ccco2)cc1` [Compound 10, (E)-4-(Furan-2-ylmethyleneamino)-N-(pyrimidin-2-yl)benzenesulfonamide], the “COX1 Selectivity Index” value in the test with human recombinant COX-1 is reported as 5.86. Also, on human recombinant COX-2, the IC50 was determined as 11.3 µM. In addition, in test [1], the IC50 was found to be 0.62 µM and the “Collagen Inhibition Rate (%) ± SD” value amounted to 89.36 ± 1.23%. In addition, in test [2], the IC50 was found to be 0.37 µM and the “ADP Inhibition Rate (%) ± SD” value worked out at 78.36 ± 1.36%.

Turning to `O=S(=O)(Nc1cnc2ccccc2n1)c1ccc(/N=C/c2ccco2)cc1` [Compound 12, (E)-4-(Furan-2-ylmethyleneamino)-N-(quinoxalin-2-yl)benzenesulfonamide], in the test on human recombinant COX-1, the “COX1 Selectivity Index” value is reported as 18.69. Also, the IC50 at human recombinant COX-2 is 13.3 µM. Besides, in test [1] (fold versus aspirin), the “activity compared to aspirin, collagen” value was 4.25 folds. Also, in test [1], the half-inhibitory concentration (IC50) was found to be 0.12 µM and the “Collagen Inhibition Rate (%) ± SD” value is 95.9 ± 1.39%. Also, the “reactivity compared to aspirin, ADP” value in test [2] (fold versus aspirin) came out at 4.45 folds. Further, in test [2], the IC50 turned out to be 0.11 µM and the “ADP Inhibition Rate (%) ± SD” value is listed as 98.1 ± 1.68%.

As to `COc1ccc2c(c1)c(CC(=O)O)c(C)n2C(=O)c1ccc(Cl)cc1` [Indomethacin], the IC50 with COX-1 (read-out: IC50 (μM) COX-1) is […].

Take `COc1ccc(-c2ncc(C)nc2-c2ccc(S(N)(=O)=O)cc2)cc1` [IV]: the IC50 with COX-2 (previous examples of Figure 1) is 0.46 µM; in the test on COX-1 (setting [3]), 97 µM.

In the case of `Nc1ccc(S(=O)(=O)Nc2ccc(Cl)cc2)cc1` [Compound I], the selectivity index result with COX-1 was “approximately 100 folds”. Moreover, the IC50 in the test with COX-1 (read-out: IC50 COX-1) is 12 µM.

Regarding `O=S(=O)(Nc1ncccn1)c1ccc(/N=C/c2ccccc2O)cc1` [Compound 11, (E)-4-(2-Hydroxybenzylideneamino)-N-(pyrimidin-2-yl)benzenesulfonamide], the “COX1 Selectivity Index” value in the test on human recombinant COX-1 stood at 3.16. The half-maximal inhibitory concentration (IC50) on human recombinant COX-2 was 15.2 µM. Moreover, in test [1], the IC50 stood at 1.03 µM and the “Collagen Inhibition Rate (%) ± SD” value is on record as 76.35 ± 1.34%. In addition, in test [2], the IC50 was determined as 0.25 µM and the “ADP Inhibition Rate (%) ± SD” value was 84.36 ± 1.64%.

On to `CC(=O)Oc1ccccc1C(=O)O` [Aspirin], for which, in test [1], inhibition was half-maximal at 0.51 µM (IC50) and the “Collagen Inhibition Rate (%) ± SD” value is listed as 64.3 ± 1.38%. In test [2], the IC50 was found to be 0.49 µM and the “ADP Inhibition Rate (%) ± SD” value came to 92.36 ± 1.5%.

Turning to `Oc1ccc(/C=C/c2cc(O)cc(O)c2)cc1` [Compound II], in the test on COX-1, the selectivity index entry is on record as “around 200 folds”. In addition, the IC50 in the test with COX-1 (read-out: IC50 COX-1) is 15 µM.

As for `CS(=O)(=O)c1ccc(-c2nc(NCc3ccc(F)cc3)cc(C(F)(F)F)n2)cc1` [IX], the IC50 in the test with COX-2 (previous examples of Figure 1) is 0.007 µM. Moreover, the COX-1 activity entry in the test with COX-1 (previous examples of Figure 1) is “not active”.

(Values after paper PMC11206759, “Synthesis, Docking, and DFT Studies on Novel Schiff Base Sulfonamide Analogues as Selective COX-1 Inhibitors with Anti-Platelet Aggregation Activity” (Pharmaceuticals, 2024).)
